In article PMC11627005 (Febs Letters, 2024) one finds IC50 data, which are given here for 1 molecule.

Holding throughout (type): biochemical
Assay [1] deals with E. coli respiratory complex I (proton-pumping NADH:ubiquinone oxidoreductase, NuoA to NuoN) (Escherichia coli, UniProt P0AFC7+P0AFD4+P33599, P33599:D325E).
In assay [2] the target is E. coli respiratory complex I (proton-pumping NADH:ubiquinone oxidoreductase, NuoA to NuoN) (Escherichia coli, UniProt P0AFC7+P0AFD4+P33599, P33599:D325A).
Assay [3] deals with E. coli respiratory complex I (proton-pumping NADH:ubiquinone oxidoreductase, NuoA to NuoN) (Escherichia coli, UniProt P0AFC7+P0AFD4+P33599).
Assay [4] addresses E. coli respiratory complex I (proton-pumping NADH:ubiquinone oxidoreductase, NuoA to NuoN) (Escherichia coli, UniProt P0AFC7+P0AFD4+P33599, P33599:D325Q).
Assay [5] has as its target E. coli respiratory complex I (proton-pumping NADH:ubiquinone oxidoreductase, NuoA to NuoN) (Escherichia coli, UniProt P0AFC7+P0AFD4+P33599, P33599:D325N).

With `C/C=C(\C)[C@H](O)[C@H](C)/C=C(C)/C=C/C/C(C)=C/Cc1nc(OC)c(OC)c(O)c1C` [piericidin A], the IC50 in assay [1] was 6.2 ± 0.5 µM; in assay [2], 9.3 ± 0.8 µM; in assay [3], 3.5 ± 0.2 µM; in assay [4], 16.9 ± 1.2 µM; in assay [5], 17.4 ± 0.6 µM.
